Values quoted from earlier work in PubChem BioAssay AID1259409 (Chemical Carcinogenesis Research Information System (CCRIS), 2018).

Tested on: rodent chemically induced tumor inhibition, incidence and multiplicity
Test: CCRIS tumor inhibitor studies
Details: Route [Inhibitor]: ORAL

## CC1=C(/C=C/C(C)=C/C=C/C(C)=C/C(=O)Nc2ccc(O)cc2)C(C)(C)CCC1
Carcinogen: 1,2-DIMETHYLHYDRAZINE, 540-73-8, Dose [Inhibitor]: 2.0 MMOL/KG DIET DAILY STARTING 12 D AFTER CARCINOGEN TREATMENT THROUGH ABOUT 8 MO AFTER CARCINOGEN DOSE (STUDY DURATION, Species: RAT, Strain/Sex: F344/MALE, Target Tissue: Type of Lesion: COLON: ADENOCARCINOMA, Dose [Carcinogen]: 150 MG/KG BW ONCE, Promoter: NONE USED
  tumour outcome (control, treated, inhibition, significance): 10/39 (26%), 5/30 (17%), 35%, not significant
Carcinogen: 1,2-DIMETHYLHYDRAZINE, 540-73-8, Dose [Inhibitor]: 2.0 MMOL/KG DIET DAILY STARTING 12 D AFTER CARCINOGEN TREATMENT THROUGH ABOUT 8 MO AFTER CARCINOGEN DOSE (STUDY DURATION, Species: RAT, Strain/Sex: F344/MALE, Target Tissue: Type of Lesion: COLON: ADENOMA, Dose [Carcinogen]: 150 MG/KG BW ONCE, Promoter: NONE USED
  tumour outcome (control, treated, inhibition, significance): 23/39 (59%), 7/30 (23%), 61%, p<0.05
Carcinogen: 4-(METHYLNITROSAMINO)-1-(3-PYRIDYL)-1-BUTANONE [64091-50-5], Dose [Inhibitor]: 2 MMOL/KG IN DIET FOR 17 WK BEGINNING 1 WK PRIOR TO FIRST CARCINOGEN DOSE (STUDY DURATION: 17 WK), Species: MOUSE, Strain/Sex: A/J/FEMALE, Target Tissue: Type of Lesion: LUNG: ADENOMA, Dose [Carcinogen]: 10 UMOL ONCE 1 WK POST FIRST INHIBITOR DOSE (STUDY DURATION: 17 WK), Promoter: NONE
  tumour outcome (control, treated, inhibition, significance): 100%, 100%, 0%, not significant
Carcinogen: 4-(METHYLNITROSAMINO)-1-(3-PYRIDYL)-1-BUTANONE [64091-50-5], Dose [Inhibitor]: 2 MMOL/KG IN DIET FOR 53 WK BEGINNING 1 WK PRIOR TO FIRST CARCINOGEN DOSE (STUDY DURATION: 53 WK), Species: MOUSE, Strain/Sex: A/J/FEMALE, Target Tissue: Type of Lesion: LUNG: ADENOMA OR ADENOCARCINOMA, Dose [Carcinogen]: 10 UMOL ONCE 1 WK POST FIRST INHIBITOR DOSE (STUDY DURATION: 53 WK), Promoter: NONE
  tumour outcome (control, treated, inhibition, significance): 100%, 100%, 0%, not significant
Carcinogen: 4-(METHYLNITROSAMINO)-1-(3-PYRIDYL)-1-BUTANONE [64091-50-5], Dose [Inhibitor]: 4 MMOL/KG IN DIET FOR 17 WK BEGINNING 1 WK PRIOR TO FIRST CARCINOGEN DOSE (STUDY DURATION: 17 WK), Species: MOUSE, Strain/Sex: A/J/FEMALE, Target Tissue: Type of Lesion: LUNG: ADENOMA, Dose [Carcinogen]: 10 UMOL ONCE 1 WK POST FIRST INHIBITOR DOSE (STUDY DURATION: 17 WK), Promoter: NONE
  tumour outcome (control, treated, inhibition, significance): 100%, 100%, 0%, not significant
Carcinogen: 4-(METHYLNITROSAMINO)-1-(3-PYRIDYL)-1-BUTANONE [64091-50-5], Dose [Inhibitor]: 4 MMOL/KG IN DIET FOR 53 WK BEGINNING 1 WK PRIOR TO FIRST CARCINOGEN DOSE (STUDY DURATION: 53 WK), Species: MOUSE, Strain/Sex: A/J/FEMALE, Target Tissue: Type of Lesion: LUNG: ADENOMA OR ADENOCARCINOMA, Dose [Carcinogen]: 10 UMOL ONCE 1 WK POST FIRST INHIBITOR DOSE (STUDY DURATION: 53 WK), Promoter: NONE
  tumour outcome (control, treated, inhibition, significance): 100%, 93%, 7%, not significant
Carcinogen: 7,12-DIMETHYLBENZ[A]ANTHRACENE, 57-97-6, Dose [Inhibitor]: 0, 1 MMOL/KG IN DIET FOR THE DURATION OF STUDY BEGINNING 1 WK PRIOR TO CARCINOGEN DOSE (STUDY DURATION: 105 WK), Species: RAT, Strain/Sex: SPRAGUE-DAWLEY/FEMALE, Target Tissue: Type of Lesion: MAMMARY GLAND: TUMOR, Dose [Carcinogen]: 15 MG IN 1 ML SESAME OIL ONCE, Promoter: NONE USED
  tumour outcome (control, treated, inhibition, significance): 88%, 73%, 17%, not significant
Carcinogen: 7,12-DIMETHYLBENZ[A]ANTHRACENE, 57-97-6, Dose [Inhibitor]: 0, 2 MMOL/KG IN DIET FOR THE DURATION OF STUDY BEGINNING 1 WK PRIOR TO CARCINOGEN DOSE (STUDY DURATION: 105 WK), Species: RAT, Strain/Sex: SPRAGUE-DAWLEY/FEMALE, Target Tissue: Type of Lesion: MAMMARY GLAND: TUMOR, Dose [Carcinogen]: 15 MG IN 1 ML SESAME OIL ONCE, Promoter: NONE USED
  tumour outcome (control, treated, inhibition, significance): 88%, 33%, 63%, not significant
Carcinogen: 7,12-DIMETHYLBENZ[A]ANTHRACENE, 57-97-6, Dose [Inhibitor]: 0, 2 MMOL/KG OF DIET FOR 15.5 WK BEGINNING 10 D PRIOR TO CARCINOGEN DOSE (STUDY DURATION: 17 WK), Species: RAT, Strain/Sex: SPRAGUE-DAWLEY/FEMALE, Target Tissue: Type of Lesion: MAMMARY GLAND: TUMOR, Dose [Carcinogen]: 15 MG IN 1 ML OF SESAME OIL ONCE AT 50 D OF AGE, Promoter: NONE USED
  tumour outcome (control, treated, inhibition, significance): 92%, 58%, 37%, not calculated
Carcinogen: 7,12-DIMETHYLBENZ[A]ANTHRACENE, 57-97-6, Dose [Inhibitor]: 0, 2 MMOL/KG OF DIET FOR 18.5 WK BEGINNING 10 D PRIOR TO CARCINOGEN DOSE (STUDY DURATION: 18.5 WK), Species: RAT, Strain/Sex: SPRAGUE-DAWLEY/FEMALE, Target Tissue: Type of Lesion: MAMMARY GLAND: TUMOR, Dose [Carcinogen]: 15 MG IN 1 ML OF SESAME OIL ONCE AT 50 D OF AGE, Promoter: NONE USED
  tumour outcome (control, treated, inhibition, significance): 83%, 33%, 60%, not calculated
Carcinogen: 7,12-DIMETHYLBENZ[A]ANTHRACENE, 57-97-6, Dose [Inhibitor]: 0, 2 MMOL/KG OF DIET FOR 20 D BEGINNING 10 D PRIOR TO CARCINOGEN DOSE (STUDY DURATION: 18.5 WK), Species: RAT, Strain/Sex: SPRAGUE-DAWLEY/FEMALE, Target Tissue: Type of Lesion: MAMMARY GLAND: TUMOR, Dose [Carcinogen]: 15 MG IN 1 ML OF SESAME OIL ONCE AT 50 D OF AGE, Promoter: NONE USED
  tumour outcome (control, treated, inhibition, significance): 100%, 67%, 33%, not calculated
Carcinogen: 7,12-DIMETHYLBENZ[A]ANTHRACENE, 57-97-6, Dose [Inhibitor]: 0.75 MMOL/KG OF DIET IN 25 ML OF THE VEHICLE (ETHANOL/TRICAPRYLIN 1:4 (VOL/VOL) PLUS 6% (WT/VOL) ALPHA-TOCOPHEROL) BEGIN, Species: RAT, Strain/Sex: SPRAGUE-DAWLEY/FEMALE, Target Tissue: Type of Lesion: MAMMARY GLAND: TUMOR, Dose [Carcinogen]: 75 MG/KG BW IN 1.0 ML SESAME OIL ONCE, Promoter: NONE USED
  tumour outcome (control, treated, inhibition, significance): 70%, 65%, 7%, not significant
